Results from US11577092B2, “Phosphor-containing drug activator activatable by a monte carlo derived X-ray exposure, system containing the activator, and methods for use” (IMMUNOLIGHT, LLC, priority 2016, dated 2023).

Tests used:
4T1-HER2 cells [1] = test: Methylene blue staining for cell viability post treatment; type: cell-based, murine; conditions: individual components; 1 Gy of 80 kVp x-rays; phosphor 25, 50, 100 μg/mL; UVADEX 10 uM 8-MOP
Source text: Methylene blue staining of viable 4T1-HER2 cells confirms that the device works well according to the target parameters identified above. A plate having six (6) wells is subjected to treatment. FIG. 11 is a photographic depiction showing of Methylene Blue stain for cell viability post treatment with X-ray, phosphors and UVADEX. One well (#1) is the control. One well (#2) has phosphor coated with EC and DLC (H100). One well (#3) has phosphor coated with EC (but no DLC). One well (#4) has drug UVADEX but no phosphors. One well (#5) has drug UVADEX and phosphors coated with EC and DLC. One well (#6) has drug UVADEX and phosphors coated with EC and no DLC.
All wells were exposed to the optimized x-ray initiation energy noted above. […] One added benefit to a dual coating is redundancy in safety of the treatment.
(§1) Other assays were used to provide independent complimentary information on cell viability, e.g. Methylene blue staining and ATP-induced Luminescence imaging (Cell-Titer-Glo® Luminescence Cell Viability Assay). The luminescence imaging permitted investigation of the cytotoxicity of psoralen activated directly with a UV lamp, and in the absence of phosphors and x-ray radiation.
FIGS. 13A-13D illustrates the efficacy of treatment in-vitro in 4T1-HER2 cells, utilizing a regimen of 1/10-diluted UVADEX (with equivalent of 10 uM 8-MOP), 50 μg/mL phosphor 1 Gy of 80 kVp x-rays. […]

4T1-HER2 cells [2] = test: Cell viability by Guava flow cytometry (forward scattering) 48 hours after treatment; type: cell-based, murine; conditions: single component, 1 Gy of 80 kVp; UVADEX p=0.97, phosphors p=0.034
Description: (§2) In-vitro studies were conducted on plated cells following standard procedures. Cells were maintained in RPMI-1640 supplemented with 10% fetal bovine serum and L-glutamine from GIBCO (Grand Island, N.Y.) growing in a humidified atmosphere of 5% CO2. After incubation, cells were trypsinized and plated evenly onto twelve 12-well plates for 24 hours. […] Each plate had 12 wells with three wells for each of the four treatment arms. The plates were then irradiated with x-rays by placing the plate at a known distance from the x-ray source (50 cm). After irradiation, the cells were incubated on the plate for 48 hours prior to performing flow cytometry. […]
(§3) Two primary flow cytometry analyses were used, both determined at 48 hours after treatment. […] The first analysis evaluated was metabolic cell viability (herein referred to as cell viability) calculated from the number of whole cells per well as determined using forward scattering (FSC). […]
(§4) FIGS. 13A-13D illustrates the efficacy of treatment in-vitro in 4T1-HER2 cells, utilizing a regimen of 1/10-diluted UVADEX (with equivalent of 10 uM 8-MOP), 50 μg/mL phosphor 1 Gy of 80 kVp x-rays. […] In FIG. 13A, cell viability after treatment (10 μM 8-MOP equivalent dilution of UVADEX, 50 μg/mL phosphor, 1 Gy of 80 kVp radiation) as determined by Guava flow cytome cytometry is depicted. […]

4T1-HER2 cells [3] = test: Annexin V positivity by flow cytometry 48 hours after treatment; type: cell-based, murine; conditions: 10 μM 8-MOP equivalent UVADEX, 50 μg/mL phosphor, 1 Gy of 80 kVp; UVADEX alone with or without x-ray
Description: as §2, §3, §4

[4] = tested on: CT2A (murine malignant glioma), 4T1 and KP-B (sarcoma) cell lines; test: Cell-Titer-Glo Luminescence Cell Viability Assay on three cell lines; type: cell-based; conditions: psoralen 40 μM; UV light 0, 0.25, 0.5, 1.0 J/cm^2; N=4
Source text: Guava Annexin V flow cell cytometry was used to quantify cytotoxicity in 3 murine tumor cell lines (mammary −4T1; 4T1-HER2, 4T1 stably transfected with the human HER2 oncogene; glioma-CT2A; sarcoma KP-B). The mouse breast cancer cell line 4T1 was purchased from ATCC. 4T1-HER2 was provided by Dr. Michael Kershaw (Cancer Immunology Program, Peter MacCallum Cancer Centre, Victoria, Australia) and maintained in DMEM with penicillin/streptomycin and 10% FBS The Sarcoma KP-B cell lines were derived from primary tumors LSL-Kras; p53 Flox/Flox mice (45).
as §1
FIG. 14B presents data on CT2A malignant glioma cells, for a range of treatment parameters including variable x-ray dose (0, 0.67 and 1 Gy), phosphor concentration (50 or 100 μg) and psoralen concentration (8-MOP) at 10, 20 and 40 μM respectively. […] N=4 for each cell line at each UV light condition (0, 0.25, 0.5, 1.0 J/cm^2). The psoralen concentration was 40 μM. […]

## COc1c2occc2cc2ccc(=O)oc12 [UVADEX, 8-methoxypsoralen]
4T1-HER2 cells [1]
  effect in methyl blue staining: little effect
4T1-HER2 cells [2]
  reduction in cell viability when radiation was added: no significant effect
4T1-HER2 cells [3]
  increase in Annexin V staining (apoptotic activity): negligible apoptotic activity

## O=c1ccc2cc3ccoc3cc2o1 [psoralen]
[4]
  viable cells after UV light activated psoralen: reduce viable cells in 3 cell lines
